Reference: patent US20100081637A1, “Eczema treatment with vitamin D and analogs thereof method, composition and cream” (Innovia Skincare Corp., priority 2008, published 2010)

Experiments:
phosphate transport = settings: cited from earlier work; for influence of presence or absence of luminal Ca on phosphate transport: vascular perfusion, 65 pM 1,25-dihydroxyvitamin D3 or 6.5 nM 24,25-dihydroxyvitamin D3
atopic dermatitis = test: Topical vitamin D cream in eczema / atopic dermatitis patients, case reports (Examples 1-6); settings: for effect of prior treatment on itch / effect of prior treatment on redness: prior treatments of the Example 3 patient, per parent
Excerpt: Person, diagnosed with atopic dermatitis. […] Prior treatments consisted of:
We apply the cream after bathing, before bedtime, and during the night, when needed for itching. […]
Adult […]. […] A vitamin D (400 IU/g) cream was applied. […]

[1] = test system: lesions from atopic dermatitis; settings: five patients; calcipotriol 50 ug/g and maxacalitriol 25 ug/g, ointment; cited from earlier work
pruritus = test: Dose response of pruritus scores against vitamin D concentration (the FIGURE); format: in vivo, human; settings: topical application; read from the dose response graph
Excerpt: The FIGURE is a graph illustrating the dose response experimental data in terms of pruritus scores on the vertical scale and a vitamin D concentration in international units per gram (IU/g) on the horizontal scale, with up to four different timing parameters represented by adjacent differentiated bars for each concentration. Pruritus relief is the fastest observed benefit after topical application of our claimed formulations. The graph below indicates an effective concentration as low as 50 IU/g. This is also an indication of bioavailability of vitamin D and therefore an indication of the lowest effective concentration for the treatment of additional symptoms of eczema.

phosphate metabolism = settings: Cross and Peterlik 1981; cited from earlier work

C=C1/C(=C\C=C2/CCC[C@]3(C)[C@@H]([C@H](C)CCCC(C)(C)O)CC[C@@H]23)C[C@@H](O)C[C@@H]1O [1,25-dihydroxyvitamin D3]
influence of presence or absence of luminal Ca on phosphate transport (phosphate transport): did not influence

C=C1CC[C@H](O)C/C1=C/C=C1\CCC[C@]2(C)[C@@H]([C@H](C)CCCC(C)(C)O)CC[C@@H]12 [25-hydroxyvitamin D3]
stimulation of phosphate transport relative to the normal concentration (100 nM) (phosphate transport; subnormal concentration (20 nM)): much higher rates | phosphate transport, luminal Ca present (phosphate transport; vascular perfusion with 100 nM 25-hydroxyvitamin D3): stimulated

CCCCC(=O)O[C@]1(C(=O)CO)CC[C@H]2[C@@H]3CCC4=CC(=O)CC[C@]4(C)[C@H]3[C@@H](O)C[C@@]21C [Hydrocort Val 02%]
effect of prior treatment on itch (atopic dermatitis): did not help | effect of prior treatment on redness (atopic dermatitis): did not help

Cl.OCCOCCN1CCN(C(c2ccccc2)c2ccc(Cl)cc2)CC1 (stereo not drawn) [Hydroxyz Hcl 10 mg]
sleepiness under prior treatment (atopic dermatitis; human, in vivo): made their sleepy | effect of prior treatment on itch (atopic dermatitis): did not help

C=C1CCC(O)C/C1=C\C=C1\CCCC2(C)C1CCC2C(C)CCC(O)C(C)(C)O (stereo not drawn) [24,25-dihydroxyvitamin D3]
influence of presence or absence of luminal Ca on phosphate transport (phosphate transport): did not influence

C=C1/C(=C\C=C2/CCC[C@]3(C)[C@@H]([C@H](C)OCCC(C)(C)O)CC[C@@H]23)C[C@@H](O)C[C@@H]1O [maxacalitriol]
effect on lesions from atopic dermatitis [1]: improvement of lesions

C=C1/C(=C\C=C2/CCC[C@]3(C)[C@@H]([C@H](C)/C=C/[C@@H](O)C4CC4)CC[C@@H]23)C[C@@H](O)C[C@@H]1O [calcipotriol]
effect on lesions from atopic dermatitis [1]: improvement of lesions

C=C1CC[C@H](O)C/C1=C/C=C1\CCC[C@]2(C)[C@@H]([C@H](C)CCCC(C)C)CC[C@@H]12 [vitamin D, cholecalciferol]
lowest effective concentration for pruritus relief (pruritus): 50 IU/g | activity with respect to phosphate metabolism (phosphate metabolism): active

CC1(C)O[C@@H]2C[C@H]3[C@@H]4CCC5=CC(=O)C=C[C@]5(C)[C@H]4[C@@H](O)C[C@]3(C)[C@]2(C(=O)CO)O1 [Desonide 0.5%, Desonide]
effect of prior treatment on itch (atopic dermatitis): gives itch relief | effect of prior treatment on redness (atopic dermatitis): reduces redness

CC(=O)OCC(=O)[C@@]12OC(C)(C)O[C@@H]1C[C@H]1[C@@H]3C[C@H](F)C4=CC(=O)C=C[C@]4(C)[C@@]3(F)[C@@H](O)C[C@@]12C [Fluocinonide 0.05%, Fluocinonide]
effectiveness of prior treatment (atopic dermatitis; prior treatment of the Example 5 patient, self-reported): fairly effective
